Laboratory results from patent publication US20230085362A1, “PYRIMIDINE COMPOUNDS AND USE THEREOF” (National Health Research Institutes, priority 2021, published 2023).
Like-named read-outs stand apart in the source and are kept apart here.

Tested on: Primary DRG cells
Experiment: Neurite outgrowth assay (group A), paclitaxel-induced neurotoxicity
Assay type: cell-based, C57BL/6 J mice
Conditions: for neuroprotection against paclitaxel-induced neurotoxicity: 1 µM compound; for activity at 1 µM: Mus musculus, read-out: Neurite outgrowth (%); for Neurite outgrowth (%) A-B (extent of protection): difference between compound 1 µM + paclitaxel 0.05 µM and paclitaxel 0.05 µM alone
Method: Compounds of this invention were evaluated using the neurite outgrowth assay as described in Chen et al., Scientific Reports, 7, 45366, DOI: 10.1038/srep45366 (2017).
Cell culture. For primary culture, dorsal root ganglia (“DRG”) were removed from 7-weeks-old C57BL/6 J mice and digested with 0.1% collagenase (Sigma-Aldrich, St. Louis, MO) for 1 hour, followed by 0.25% trypsin treatment for 25 minutes. The dissociated neuron cultures were plated at a density of 2.5×10^4 cells per well in a 96 well optics plates (CLS3614; Sigma-Aldrich) precoated with 1 mg/mL poly-D-lysine (A-003-M; Sigma-Aldrich) for 3 hours. Primary DRG cells were grown in DMEM-F12 (11320033; Gibco®, ThermoFisher Scientific, Waltham, MA) supplemented with 10% fetal bovine serum (FBS, 26140079; Gibco®, ThermoFisher). These cells were maintained at 37° C. in an environment containing 5% CO2.
Neurite outgrowth assay (group A). Primary DRG cells were incubated with one of the Example 2 compounds at 1 µM for 24 hours, and then treated with 0.05 µM paclitaxel for another 24 hours. After the paclitaxel treatment, the primary DRG cells were washed by PBS and then fixed with 4% paraformaldehyde (PFA, P6148; Sigma-Aldrich) for 15 minutes. The DRG cells thus fixed were permeabilized by 0.05% Triton X-100 in PBS for 20 minutes and blocked with 3% bovine serum albumin (BSA; Sigma-Aldrich, USA) at room temperature for 1 hour. Subsequently, DRG cells were stained with rabbit anti-β III tubulin (1:600; Cell Signaling, USA) and mouse anti-NeuN monoclonal antibody (1:400; Millipore, USA) overnight at 4° C. The samples were then washed by PBS and reacted with secondary antibodies (Alexa-488 and Alexa-594 1:600; Invitrogen, CA) at room temperature for 1 hour. For image acquisition and analysis of DRG neurite outgrowth, images of stained cells were automatically acquired using 10X objective by Image Xpress Micro wide field fluorescent microscope (Molecular Devices, USA). A control was obtained following the same procedure except that the DRG cells were not treated with a compound or paclitaxel. Neurite outgrowth was measured as a percentage of outgrowth as compared to the control.
The difference between A and B indicates an extent of protection provided by the compound.

[1] = DRG cells, 1 µM compound 24 h then 0.05 µM paclitaxel 24 h, % of untreated control

| Structure (SMILES) | neuroprotection against paclitaxel-induced neurotoxicity (0.05 µM paclitaxel) | activity at 1 µM [1] [%] | Neurite outgrowth (%) A-B (extent of protection) [%] | neurotoxicity to DRG neurite outgrowth (0.05 µM paclitaxel 24 h) | inhibition of DRG neurite outgrowth (0.05 µM paclitaxel, across experiments of Table 1) | activity at 1 µM (24 h) [%] |
| --- | --- | --- | --- | --- | --- | --- |
| O=P(O)(O)CCN1CCC(Nc2cc(N3CCCCC3)nc(NCc3cn(CCCO)nn3)n2)CC1 [Compound 135] | neuroprotection was provided | 56 | 6 | – | – | – |
| COC(=O)CCOCCCn1cc(CNc2nc(NC3CCN(Cc4ccc5ccccc5c4)CC3)cc(N3CCOCC3)n2)nn1 [Compound 75] | neuroprotection was provided | – | – | – | – | – |
| CCCCC(=O)NCCCn1cc(CNc2nc(NC3CCN(CCP(=O)(O)O)CC3)cc(N3CCOCC3)n2)nn1 [Compound 28] | neuroprotection was provided | 53 | 3 | – | – | – |
| OCC(CO)Cn1cc(CNc2nc(NC3CCN(Cc4ccccc4)CC3)cc(N3CCOCC3)n2)nn1 [Compound 81] | neuroprotection was provided | 52 | 2 | – | – | – |
| CC(=O)O[C@H]1C(=O)[C@@]2(C)[C@H]([C@H](OC(=O)c3ccccc3)[C@]3(O)C[C@H](OC(=O)[C@H](O)[C@@H](NC(=O)c4ccccc4)c4ccccc4)C(C)=C1C3(C)C)[C@]1(OC(C)=O)CO[C@@H]1C[C@@H]2O [paclitaxel, reference compound] | – | – | – | inhibiting neurite outgrowth | 50%-69 | – |
| COC(=O)CCOCCCn1cc(CNc2nc(NC3CCN(Cc4cccc(C(=O)OC)c4)CC3)cc(N3CCOCC3)n2)nn1 [Compound 68] | neuroprotection was provided | – | 1 | – | – | 41 |
| COCCCn1cc(CNc2nc(NC3CCNCC3)cc(N3CCOCC3)n2)nn1 [Compound 61] | neuroprotection was provided | 52 | 3 | – | – | – |
| CCn1nnc(CNc2nc(NC3CCN(CCC(=O)OC)CC3)cc(N3CCOCC3)n2)n1 [Compound 100] | neuroprotection was provided | 52 | 3 | – | – | – |
| OCCCn1cc(CNc2cc(NC3CCNCC3)nc(NCc3cn(CCCO)nn3)n2)nn1 [Compound 108] | neuroprotection was provided | – | 9 | – | – | 41 |
| COC(=O)CCOCCCn1cc(CNc2nc(NC3CCN(Cc4ccccc4)CC3)cc(N3CCOCC3)n2)nn1 [Compound 65] | neuroprotection was provided | – | – | – | – | – |
| COCCCn1cc(CNc2nc(NC3CCN(CCC(=O)OC)CC3)cc(N3CCOCC3)n2)nn1 [Compound 62] | neuroprotection was provided | 50 | 3 | – | – | – |
| COC(=O)c1cccc(CNCCCn2cc(CNc3nc(NC4CCN(Cc5ccccc5)CC4)cc(N4CCOCC4)n3)nn2)c1 [Compound 21] | neuroprotection was provided | 45 | 3 | – | – | – |
| COC(=O)CCCCC(=O)N1CCC(Nc2cc(N3CCOCC3)nc(NCc3cn(CCCOCCC(=O)OC)nn3)n2)CC1 [Compound 73] | neuroprotection was provided | 45 | 3 | – | – | – |
| CN1CCN(c2cc(NCc3cccnc3)nc(NCc3cn(CCCO)nn3)n2)CC1 [Compound 42] | neuroprotection was provided | 34 | 3 | – | – | – |
| O=P(O)(O)CCN1CCC(Nc2cc(N3CCS(=O)(=O)CC3)nc(NCc3cn(CCCO)nn3)n2)CC1 [Compound 143] | neuroprotection was provided | 57 | 7 | – | – | – |
| CC(C)NCCCn1cc(CNc2nc(NC3CCNCC3)cc(N3CCOCC3)n2)nn1 [Compound 18] | neuroprotection was provided | 50 | 3 | – | – | – |
| COC(=O)CCOCCCn1cc(CNc2nc(NC3CCN(Cc4ccc(C#N)cc4)CC3)cc(N3CCOCC3)n2)nn1 [Compound 72] | neuroprotection was provided | 45 | 3 | – | – | – |
| O=P(O)(O)CCN1CCC(Nc2cc(N3CCSCC3)nc(NCc3cn(CCCO)nn3)n2)CC1 [Compound 140] | neuroprotection was provided | 54 | 4 | – | – | – |
| CN1CCN(c2cc(NC3CCNCC3)nc(NCc3cn(CCCO)nn3)n2)CC1 [Compound 41] | neuroprotection was provided | 34 | 3 | – | – | – |
| O=P(O)(O)CCN1CCC(Nc2cc(N3CCOCC3)nc(NCc3cn(CCO)nn3)n2)CC1 [Compound 114] | neuroprotection was provided | 55 | 8 | – | – | – |
| COC(=O)CCOCCCn1cc(CNc2nc(NC3CCN(CCC(=O)OC)CC3)cc(N3CCOCC3)n2)nn1 [Compound 66] | neuroprotection was provided | 52 | 5 | – | – | – |
| O=C(O)CCN1CCC(Nc2cc(N3CCOCC3)nc(NCc3cn(CC(=O)O)nn3)n2)CC1 [Compound 6] | neuroprotection was provided | – | 3 | – | – | 46 |
| COC(=O)CCN1CCC(Nc2cc(N3CCOCC3)nc(NCc3cn(CCCO)nn3)n2)CC1 [Compound 48] | neuroprotection was provided | 58 | 11 | – | – | – |
| CC(O)Cn1cc(CNc2nc(NC3CCNCC3)cc(N3CCOCC3)n2)nn1 (stereo not shown) [Compound 53] | neuroprotection was provided | 47 | 2 | – | – | – |
| CC(C)(O)CCn1cc(CNc2nc(NC3CCN(CCP(=O)(O)O)CC3)cc(N3CCOCC3)n2)nn1 [Compound 60] | neuroprotection was provided | 40 | 4 | – | – | – |
| NCCCn1cc(CNc2nc(NC3CCN(C(=O)CCNC(=O)C4(O)CC(O)C(O)C(O)C4)CC3)cc(N3CCOCC3)n2)nn1 (stereo not shown) [Compound 15] | neuroprotection was provided | 35 | 3 | – | – | – |
| CCOC(=O)CNCCC(=O)N1CCC(Nc2cc(N3CCOCC3)nc(NCc3cn(CCCOCCC(=O)OC)nn3)n2)CC1 [Compound 74] | neuroprotection was provided | 45 | 3 | – | – | – |
| O=P(O)(O)CCN1CCC(Nc2cc(N3CCOCC3)nc(NCc3cn(CCCCO)nn3)n2)CC1 [Compound 117] | neuroprotection was provided | 58 | 11 | – | – | – |
| OCCCn1cc(CNc2nc(NC3CCNCC3)cc(N3CCCCC3)n2)nn1 [Compound 38] | neuroprotection was provided | 37 | 5 | – | – | – |
